The source made the active and inactive calls. No cut-off for these calls is given here.
Columns and labels:
[1] = test system: T47D; test: Antiproliferative activity against human T47D cells assessed as inhibition of cell growth measured after 24 hrs by MTT assay; type: functional, cell-based
[2] = test system: BT-549; test: Antiproliferative activity against human BT-549 cells assessed as inhibition of cell growth measured after 24 hrs by MTT assay; type: functional, cell-based; conditions: BT-549, 24 h
[3] = test system: MCF7; test: Antiproliferative activity against human MCF7 cells assessed as inhibition of cell growth measured after 24 hrs by MTT assay; type: functional, cell-based; conditions: MCF7, 24 h
[4] = test system: HT-29; test: Antiproliferative activity against human HT-29 cells assessed as inhibition of cell growth measured after 24 hrs by MTT assay; type: functional, cell-based; conditions: HT-29, 24 h
[5] = test system: HepG2; test: Antiproliferative activity against human HepG2 cells assessed as inhibition of cell growth measured after 24 hrs by MTT assay; type: functional, cell-based; conditions: HepG2, 24 h
[6] = test system: Bel-7402; test: Antiproliferative activity against human Bel-7402 cells assessed as inhibition of cell growth measured after 24 hrs by MTT assay; type: functional, cell-based; conditions: Bel-7402, 24 h
[7] = test system: HeLa; test: Antiproliferative activity against human HeLa cells transfected with Nur77 siRNA assessed as inhibition of cell growth measured after 24 hrs by MTT assay; type: functional, cell-based
[8] = biological target: T1, Nuclear receptor subfamily 4immunitygroup A member 1 (Homo sapiens, UniProt P22736); test: Binding affinity to wild type Nur77 ligand binding domain (unknown origin) assessed as decrease in fluorescence intensity incubated for 30 secs by fluorescence spectrophotometric analysis
[9] = biological target: T1, Nuclear receptor subfamily 4immunitygroup A member 1; test: Antagonist activity at Nur77 ligand binding domain (unknown origin) transfected in HEK293T cells cotransfected with pG5-Luc assessed as inhibition of receptor transcriptional activity measured after 12 hrs by luciferase reporter gene assay; type: cell-based; conditions: filed as antagonist, dose 0.5-2 µM
[10] = test system: MDA-MB-231; test: Induction of apoptosis in human MDA-MB-231 cells assessed as PARP cleavage at 2 uM by western blot analysis; type: functional, cell-based; conditions: time 1-5 hrs, TDE = time-dependent effect
[11] = test system: MDA-MB-231; test: Induction of apoptosis in human MDA-MB-231 cells assessed as proportion of early apoptotic cells at 0.63 uM measured after 5 hrs by AnnexinV-FITC/PI staining based flow cytometry (reference value: 3.35%); type: functional
[12] = test system: MDA-MB-231; test: Induction of apoptosis in human MDA-MB-231 cells assessed as proportion of late apoptotic cells at 0.63 uM measured after 5 hrs by AnnexinV-FITC/PI staining based flow cytometry (reference value: 2.55%); type: functional
[13] = test system: MDA-MB-231; test: Induction of apoptosis in human MDA-MB-231 cells assessed as proportion of early apoptotic cells at 2.5 uM measured after 5 hrs by AnnexinV-FITC/PI staining based flow cytometry (reference value: 3.35%); type: functional
[14] = test system: MDA-MB-231; test: Induction of apoptosis in human MDA-MB-231 cells assessed as proportion of late apoptotic cells at 2.5 uM measured after 5 hrs by AnnexinV-FITC/PI staining based flow cytometry (reference value: 2.55%); type: functional
[15] = test system: MDA-MB-231; test: Induction of apoptosis in human MDA-MB-231 cells assessed as proportion of late apoptotic cells at 5 uM measured after 5 hrs by AnnexinV-FITC/PI staining based flow cytometry (reference value: 2.55%); type: functional
[16] = test system: MDA-MB-231; test: Induction of apoptosis in human MDA-MB-231 cells transfected with Nur77 siRNA assessed as PARP cleavage at 0.5 to 2 uM measured after 6 hrs by western blot analysis; type: functional, cell-based; conditions: dose 0.5-2 µM
[17] = test system: MDA-MB-231; test: Induction of apoptosis in human MDA-MB-231 cells transfected with ctr siRNA assessed as early apoptotic cells at 2 uM measured after 6 hrs by AnnexinV-FITC/PI staining based flow cytometry (reference value: 1.88%); type: functional
[18] = test system: MDA-MB-231; test: Induction of apoptosis in human MDA-MB-231 cells transfected with Nur77 siRNA assessed as late apoptotic cells at 1 uM measured after 6 hrs by AnnexinV-FITC/PI staining based flow cytometry (reference value: 3.97%); type: functional
[19] = test system: MDA-MB-231; test: Induction of apoptosis in human MDA-MB-231 cells transfected with Nur77 siRNA assessed as early apoptotic cells at 2 uM measured after 6 hrs by AnnexinV-FITC/PI staining based flow cytometry (reference value: 1.88%); type: functional
[20] = test system: MDA-MB-231; test: Induction of apoptosis in human MDA-MB-231 cells transfected with ctr siRNA assessed as loss of mitochondrial membrane potential at 2 uM measured after 6 hrs by JC-1 staining based flow cytometry (reference value: 13.93%); type: functional
[21] = test system: MDA-MB-231; test: Induction of apoptosis in human MDA-MB-231 cells transfected with Nur77 siRNA assessed as loss of mitochondrial membrane potential at 1 uM measured after 6 hrs by JC-1 staining based flow cytometry (reference value: 6.1%); type: functional
[22] = test system: MDA-MB-231; test: Induction of apoptosis in human MDA-MB-231 cells transfected with Nur77 siRNA assessed as loss of mitochondrial membrane potential at 2 uM measured after 6 hrs by JC-1 staining based flow cytometry (reference value: 6.1%); type: functional
[23] = test system: MDA-MB-231; test: Induction of apoptosis in human MDA-MB-231 cells assessed as PARP cleavage at 2.5 uM pretreated with PI3K and autophagy inhibitor, Wortmannin for 4 hrs followed by compound addition and measured after 6 hrs by western blot analysis; type: functional, cell-based
[24] = test system: MDA-MB-231; test: Induction of apoptosis in human MDA-MB-231 cells assessed as increase in Tunel-488 […] at 1 uM measured after 6 hrs by confocal microscopy; type: functional, cell-based
[25] = test system: MDA-MB-231; test: Induction of apoptosis in human MDA-MB-231 cells assessed as increase in cleaved caspase-3 expression at 1 uM measured after 6 hrs by confocal microscopy; type: functional, cell-based
[26] = biological target: T1, Nuclear receptor subfamily 4immunitygroup A member 1; test: Modulation of Nur77 in human MDA-MB-231 cells assessed as increase in TP53 phosphorylation at Ser15 residue at 0.31 to 5 uM measured after 6 hrs by western blot analysis; type: cell-based; conditions: filed as modulator, dose 0.31-5 µM
[27] = biological target: T1, Nuclear receptor subfamily 4immunitygroup A member 1; test: Modulation of Nur77 in human MDA-MB-231 cells assessed as increase in TP53 phosphorylation at Ser392 residue at 0.31 to 5 uM measured after 6 hrs by western blot analysis; type: cell-based; conditions: dose 0.31-5 µM
[28] = Toxicity in Zebra fish AB embryo assessed as induction of morphological abnormalities at 1.25 uM measured after 24 to 72 hrs; design: species or system Danio rerio; conditions: zebrafish, time 24-72 hrs
[29] = test system: MDA-MB-231; test: Antitumor activity against human MDA-MB-231 cells xenografted in BALB/c mouse assessed as inhibition of tumor growth at 10 mg/kg, ip qd for 16 days; type: functional; conditions: MDA-MB-231, 384 h, time 16 day, read-out: TGI
[30] = Toxicity in BALB/c mouse xenografted with human MDA-MB-231 cells assessed as body weight loss at 10 mg/kg, ip qd for 16 days; type: organism-based; conditions: in vivo, 384 h, time 16 day
[31] = Toxicity in BALB/c mouse xenografted with human MDA-MB-231 cells assessed as abnormal behaviour at 10 mg/kg, ip qd for 16 days; type: organism-based; conditions: in vivo, 384 h, time 16 day
[32] = biological target: T1, Nuclear receptor subfamily 4immunitygroup A member 1; test: Binding affinity to His-tagged Nur77 ligand binding domain (unknown origin) by surface plasmon resonance assay

T1 sequence (P22736 whole entry, the tested form may be a part): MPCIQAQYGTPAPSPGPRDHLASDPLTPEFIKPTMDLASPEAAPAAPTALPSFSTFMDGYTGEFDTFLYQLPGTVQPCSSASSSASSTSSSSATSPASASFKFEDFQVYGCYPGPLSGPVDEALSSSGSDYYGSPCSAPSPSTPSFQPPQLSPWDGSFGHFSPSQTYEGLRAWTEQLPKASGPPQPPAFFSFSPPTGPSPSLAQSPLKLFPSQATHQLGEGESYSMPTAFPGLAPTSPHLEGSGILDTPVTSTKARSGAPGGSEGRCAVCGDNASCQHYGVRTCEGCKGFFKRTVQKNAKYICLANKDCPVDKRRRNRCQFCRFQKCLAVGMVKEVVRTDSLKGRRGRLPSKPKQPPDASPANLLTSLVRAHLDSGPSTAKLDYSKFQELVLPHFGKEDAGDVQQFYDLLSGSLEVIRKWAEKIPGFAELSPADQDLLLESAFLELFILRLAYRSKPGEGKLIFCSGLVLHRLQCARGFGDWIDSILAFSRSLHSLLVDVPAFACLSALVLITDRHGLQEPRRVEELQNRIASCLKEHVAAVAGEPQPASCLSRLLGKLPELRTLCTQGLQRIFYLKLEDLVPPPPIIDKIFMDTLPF

SMILES: CCN(CC)CCCNC(=O)c1cc2cc(Nc3nccc(-c4sc(NC)nc4C)n3)ccc2[nH]1
- IC50 [1]: 1.05 µM
- IC50 [2]: 2.12 µM
- IC50 [3]: 0.72 µM
- IC50 [4]: 47.2 µM
- IC50 [5]: 53.7 µM
- IC50 [6]: 38.3 µM
- IC50 [7]: 9.15 µM
- Kd [8]: 0.154 µM
- inhibition [9]: Dose-Dependent Effect
- Activity [10]: Tde
- Activity [11]: 20.22%
- Activity [12]: 5.16%
- Activity [13]: 38.14%
- Activity [14]: 16.69%
- Activity [15]: 21.84%
- Activity [16]: inactive
- Activity [17]: 19.23%
- Activity [18]: 2.24%
- Activity [19]: 2.5%
- Activity [20]: 68.69%
- Activity [21]: 8.57%
- Activity [22]: 15.41%
- Activity [23]: Active
- Activity [24]: Active
- Activity [25]: Active
- Activity [26]: Active
- Activity [27]: inactive
- Activity [28]: Toxic
- inhibition in vivo at 10 mg/kg [29]: 100%
- Activity [30]: Non-Toxic
- Activity [31]: Non-Toxic
- Kd [32]: 0.091 µM

Source: ChEMBL document CHEMBL5344425, “Discovery of 5-(Pyrimidin-2-ylamino)-1H-indole-2-carboxamide Derivatives as Nur77 Modulators with Selective and Potent Activity Against Triple-Negative Breast Cancer” (J Med Chem, 2023)
